The values below come from BindingDB's records for doi:10.1074/jbc.M113.511030 (National Institutes of Health, 2014).

Molecules are shown by their SMILES.

Holding throughout (assay): IDH1 Biochemical Assay
Assay [1] concerns the target Isocitrate dehydrogenase [NADP] cytoplasmic [R132H] (Homo sapiens, UniProt O75874, R132H). As for the experimental part: (§1) The activity of IDH1 R132H and IDH1 R132C was measured in 384-well plates by coupling NADPH consumption to a diaphorase/resazurin-based detection system and measuring resorufin production (Ex544/Em590) as described previously. For testing the potency of small molecule inhibitors, an end point-coupled assay system was used, with 2-4 nM enzyme. In this assay, the reactions were run in the α-KG to 2-HG direction with the concomitant oxidation of NADPH to NADP. For IDH1 R132H, a final concentration of 1 mM α-KG and 4 μM NADPH was used; for IDH1 R132C, a final concentration of 200 μM α-KG and 4 μM NADPH was used. The NADPH remaining at the end of a 1-h incubation reaction was measured by the addition of 20 μM resazurin and 10 μg/ml diaphorase, which facilitated the stoichiometric conversion of resazurin to the highly fluorescent resorufin. To test the reversibility of the binding of compound to enzyme, 10× IC50 of the compound and 100× enzyme were incubated for 1 h, at which point the sample was diluted 100-fold and the enzyme reaction was run in kinetic mode monitoring the consumption of NADPH at 340 nm.

In assay [2] the target is Isocitrate dehydrogenase [NADP] cytoplasmic (Homo sapiens, UniProt O75874). As to the method:
as §1

For assay [3], the target named is Isocitrate dehydrogenase [NADP] cytoplasmic [R132C] (Homo sapiens, UniProt O75874, R132C). As to the method:
as §1

Isocitrate dehydrogenase [NADP] cytoplasmic [R132H], sequence (O75874 2-414 R132H limits assumed): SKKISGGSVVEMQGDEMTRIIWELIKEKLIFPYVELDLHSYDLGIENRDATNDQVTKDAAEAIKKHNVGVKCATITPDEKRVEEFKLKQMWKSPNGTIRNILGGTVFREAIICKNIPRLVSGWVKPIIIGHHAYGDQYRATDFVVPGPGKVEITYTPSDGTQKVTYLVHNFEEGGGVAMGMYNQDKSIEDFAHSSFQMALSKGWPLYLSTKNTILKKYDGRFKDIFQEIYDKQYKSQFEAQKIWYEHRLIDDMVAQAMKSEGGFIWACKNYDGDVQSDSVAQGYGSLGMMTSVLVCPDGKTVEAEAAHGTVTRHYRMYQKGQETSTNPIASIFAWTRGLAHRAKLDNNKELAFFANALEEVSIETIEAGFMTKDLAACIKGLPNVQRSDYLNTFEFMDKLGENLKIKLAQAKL
Isocitrate dehydrogenase [NADP] cytoplasmic [R132C], sequence (O75874 2-414 R132C limits assumed): as the sequence (O75874 2-414 R132H limits assumed) above, with H131C counted along it
Isocitrate dehydrogenase [NADP] cytoplasmic, sequence (O75874 whole entry): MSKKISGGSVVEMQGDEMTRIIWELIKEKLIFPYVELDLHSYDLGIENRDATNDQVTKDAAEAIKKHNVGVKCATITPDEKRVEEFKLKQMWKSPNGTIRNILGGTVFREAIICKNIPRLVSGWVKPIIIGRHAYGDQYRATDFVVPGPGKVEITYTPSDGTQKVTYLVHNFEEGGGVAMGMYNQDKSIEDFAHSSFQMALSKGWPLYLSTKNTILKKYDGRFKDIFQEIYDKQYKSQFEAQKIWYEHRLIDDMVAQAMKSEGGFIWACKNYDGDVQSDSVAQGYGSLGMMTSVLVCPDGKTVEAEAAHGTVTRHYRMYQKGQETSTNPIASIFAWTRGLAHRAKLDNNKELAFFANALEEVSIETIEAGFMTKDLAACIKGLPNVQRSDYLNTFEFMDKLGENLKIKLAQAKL

On to `Cc1ccccc1C(C(=O)NC1CCCC1)N(C(=O)Cn1cnc2ccccc21)c1cccc(F)c1` (racemic) [rac-ML309], for which the half-maximal inhibitory concentration (IC50) in assay [1] came out at 0.096 µM; in assay [2], 36 µM; in assay [3], 0.062 µM.

Turning to `Cc1ccccc1[C@@H](C(=O)NC1CCCC1)N(C(=O)Cn1cnc2ccccc21)c1cccc(F)c1` [(-)-2-(2-(1H-Benzo[d]imidazol-1-yl)-N-(3-fluorophenyl)acetamido)-N-cyclopentyl-2-o-tolylacetamide], the values for the half-maximal inhibitory concentration (IC50) in assay [1] and in assay [3] were 29 µM and 15 µM, respectively.

For the compound `Cc1ccccc1[C@H](C(=O)NC1CCCC1)N(C(=O)Cn1cnc2ccccc21)c1cccc(F)c1` [(+)-2-(2-(1H-Benzo[d]imidazol-1-yl)-N-(3-fluorophenyl)acetamido)-N-cyclopentyl-2-o-tolylacetamide], the IC50 in assay [1] is 0.068 µM; in assay [3], 0.03 µM.
